# Several values for one entry are separate records, joined by “and”; a condition that tells them apart may be missing. Identical values can stand only once.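 Compound exposure: 48 hours, 5 concentrations, 96-well plates. GI50: concentration for 50% inhibition of growth. TGI denotes the concentration required for complete inhibition of growth.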
# Experiments:
# Test in all cases: inhibition of tumour cell growth, NCI panel, 48 h
# [1] = test system: TK-10 renal
# [2] = test system: A498 renal
# [3] = test system: HCC-2998 colon
# [4] = test system: SNB-75 CNS
# [5] = test system: MDA-MB-231 breast
# [6] = test system: IGROV1 ovarian
# [7] = test system: BT-549 breast
# [8] = test system: PC-3 prostate
# [9] = test system: RXF 393 renal
# [10] = test system: SR leukemia
SMILES,TGI [1],TGI [2],TGI [3],TGI [4] [µM],TGI [5] [µM],TGI [6] [µM],TGI [7] [µM],TGI [8] [µM],TGI [9],TGI [10],GI50 [1],GI50 [2],GI50 [4] [µM],GI50 [5] [µM],GI50 [6] [µM],GI50 [7],GI50 [8] [µM],GI50 [9],GI50 [10] [µM],GI50 [3] [µM]
O=C(O)c1cc2ccccc2c(O)c1O,40.7 µM,51.7 µM,35.8 µM,31.7,32.7,34.7,30,37,31.7 µM,> 79 µM,,,,,,,,,,
Cc1c(N=Nc2ccc([N+](=O)[O-])cc2)nc2scc(-c3ccccc3)n12,> 100 µM,> 100 µM,> 100 µM,> 100,> 100,> 100,> 100,> 100,> 100 µM,56.4 µM,,,,,,,,,,
O=C(/C=C/c1ccc(OCC(=O)N2CCN(c3ccccc3)CC2)cc1)c1ccc(Cl)cc1,> 90.6 µM,60.3 µM,> 100 µM,39.2,> 86.3,> 100,> 85.6,> 100,55.1 µM,> 100 µM,,,,,,,,,,
Nc1ccccc1C#C/C=C\C#Cc1ccccc1C(F)(F)F,27.9 µM,16.9 µM,,18.8,2.73,> 55.8,17.3,45.1,9.98 µM,0.691 µM,8.3 µM,2.55 µM,0.0869,0.274,1.34,0.699 µM,4.41,1.1 µM,0.247,
COc1c(O)c2c(c3cc(C(=O)N4CCc5c4c(O)c(OC)c4[nH]c(C(=O)N6CC7CC78C6=CC(=O)c6[nH]cc(C)c68)cc54)[nH]c13)CCN2C(N)=O (stereo unspecified),222 nM and 0.0678 µg/mL,6.94 nM and 247 nM and 0.0354 µg/mL,0.174 µM and 1.02 µM,,> 100,> 100,5.01,10,447 nM and 0.0456 µg/mL,> 100 µM and 0.0804 µg/mL,0.0259 µg/mL,,,,10.8,,,0.0282 µg/mL,,0.173
CCCC[C@H]1C(=O)O[C@H](C)[C@H](NC(=O)c2cccc(NC=O)c2O)C(=O)O[C@@H](C)[C@@H]1OC(=O)CC(C)C,50.6 µM,30 µM,35.1 µM,59.9,32.8,41.9,36,32.9,24.6 µM,38.3 µM,,,,,,,,,,
N#Cc1c(C(=O)c2ccccc2)cnn1-c1ccccc1,> 25 µM,> 25 µM,> 25 µM,> 25,> 25,> 25,> 25,> 25,> 25 µM,> 25 µM,> 25 µM,> 25 µM,> 25,> 25,> 25,> 25 µM,> 25,> 25 µM,> 25,> 25
C[C@@H]1C=C(CCCCCCCCCCC[C@H](O)[C@@H]2CCC(=O)O2)C(=O)O1,63.8 µM,68.7 µM,16.7 µM,> 100,88.7,67.9,> 100,92.9,> 100 µM,,22.9 µM,25.6 µM,> 100,19.4,13.7,47.4 µM,30.5,47.2 µM,,2.26
C(=N\Nc1ccccn1)/c1ccccn1,> 100 µM,,97.3 µM,> 93.4,> 100,> 100,> 100,> 100,,> 100 µM,,0.273 µM,0.665,0.501,0.355,1.62 µM,,0.335 µM,0.367,0.272
O=c1cccc(C#CC#C[C@H]2O[C@@H]2CO)o1,1.93 µM,4.34 µM,2.19 µM,3.52,1.02,1.85,3.02,2.01,1.74 µM,> 100 µM,0.495 µM,2.03 µM,1.89,0.419,0.624,1.19 µM,0.664,0.448 µM,0.24,0.788
OC1(C(O)(c2ccc(-c3ccccc3)cc2)c2ccc(-c3ccccc3)cc2)CCCCC1,> 100 µM,> 100 µM,> 100 µM,> 100,> 100,> 100,> 100,> 100,> 100 µM,> 100 µM,,,,,,,,,,
Cc1cn(C2CC(F)C(CO)O2)c(=O)[nH]c1=O (stereo unspecified),> 100 µM,,> 100 µM,,> 100,> 100,> 100,> 100,> 100 µM,> 100 µM,> 100 µM,,,> 100,> 100,> 100 µM,> 100,> 100 µM,> 100,> 100
O=C(O)C(=Cc1ccnc2ccccc12)C(=O)O,> 100 µM,> 100 µM,,> 100,> 100,> 100,> 100,> 100,> 100 µM,> 100 µM,,,,,,,,,,
C=C1[C@@H](C)[C@H]2[C@H](Cc3ccccc3)NC(=O)[C@]23OC(=O)/C=C/[C@H](O)CCC[C@@H](C)C/C=C/[C@H]3[C@@H]1O,47 µM,16.5 µM,> 100 µM,1.3,> 100,78.9,> 64.3,> 100,27.9 µM,> 100 µM,,,,,,,,,,
COc1ccccc1-[n+]1cc(-c2ccc(-c3ccccc3)cc2)n2c1CCCCC2,13 µM,7.5 µM,12.6 µM,13.4,2.39,13.5,1.25,8.95,9.5 µM,24.1 µM,0.638 µM,0.615 µM,0.325,0.276,0.617,0.15 µM,0.228,0.867 µM,0.304,0.318
O=C1CCC(Cc2ccc(Cl)cc2Cl)C(=O)N1 (stereo unspecified),> 100 µM,,,> 100,> 100,> 100,> 100,> 100,> 100 µM,> 100 µM,,,,,,,,,,
NC(=O)c1cnc(N[C@@H]2CCCC[C@@H]2N)nc1Nc1cccc(-n2nccn2)c1,17.8 µM,17.4 µM,4.82 µM,12.4,17.3,14.3,19,20.7,8.05 µM,6.5 µM,5.55 µM,4.62 µM,2.21,4.13,4.01,6.37 µM,5.16,2.34 µM,2.23,1.99
O=Cc1c(-c2cc(O)ccc2O)nc2sccn12,23.6 µM,78.9 µM,33.6 µM,> 100,31.4,29.5,48.8,38.3,26.6 µM,3.42 µM,11 µM,29.5 µM,36.9,12,9.04,18 µM,11.9,7.83 µM,0.64,17.3
CC1=C(/C=C/C(C)=C\C=C\C(C)=C\C(=O)Nc2ccc3c(c2)OCO3)C(C)(C)CCC1,> 100 µM,> 100 µM,36.5 µM,> 100,> 100,> 100,> 100,> 100,> 100 µM,47.7 µM,> 100 µM,> 100 µM,7.41,> 100,> 100,98.5 µM,41.2,24 µM,11.3,3.97
CC12CCC3C(CC=C4CC(O)CCC43C)C1C/C(=C\N1CCCC1)C2=O (stereo unspecified),> 100 µM,> 100 µM,> 100 µM,> 100,> 100,> 100,> 100,> 100,> 100 µM,,> 100 µM,> 100 µM,41.5,40.8,51.8,41 µM,55,41.8 µM,,> 100
O=C(/C=C/c1cccnc1)NCCCCC1CCN(C(=O)c2ccccc2)CC1,> 100 µM,> 100 µM and 97.8 µM,> 100 µM,> 100,> 100,> 100,> 100,> 100,> 100 µM,> 100 µM,> 100 µM,> 100 µM and 14.5 µM,> 73.6,> 100,> 47.3,6.11 µM and 19.6 µM,< 0.01,> 100 µM,,
CC(=O)OC[C@H]1O[C@@H](n2ccc(=O)[nH]c2=O)[C@H](OC(C)=O)[C@@H]1OC(C)=O,> 100 µM,> 100 µM,> 100 µM,> 100,> 100,> 100,> 100,> 100,> 100 µM,> 100 µM,> 100 µM,> 100 µM,> 100,> 100,> 100,> 100 µM,> 100,> 100 µM,> 100,> 100
CN(C)CCCn1c2c(c3cnccc3c1=O)C(=O)c1ccccc1-2,27.6 µM,5.95 µM,2.6 µM,4.03,3.1,3.75,8.43,3.93,2.05 µM,0.793 µM,0.721 µM,1.17 µM,0.82,0.623,0.411,1.2 µM,0.485,0.396 µM,0.095,0.777
CCN(Cc1cccc(OC)c1)c1ccc(CO)c(Cl)c1,,0.191 µM,33.8 µM,62,44,0.833,28.9,74.3,28.8 µM,66.4 µM,,0.0598 µM,16.3,14.9,0.078,13.9 µM,19.8,11.9 µM,22.9,12.5
O=c1c2ccccc2c2ccccc2c(=O)n1-c1cc2c3ccccc3ccc2c2ccccc12,> 100 µM,> 100 µM,89.1 µM,> 100,> 100,> 100,> 100,> 100,> 100 µM,,,,,,,,,,,
CC[C@]1(O)CC2CN(CCc3c([nH]c4ccccc34)[C@@](C(=O)OC)(c3cc4c(cc3OC)N(C)[C@H]3[C@@](O)(C(=O)OC)[C@H](OC(C)=O)[C@]5(CC)C=CCN6CC[C@]43[C@@H]65)C2)C1 (stereo partly specified),13.9 µM,0.0994 µM,0.0195 µM,5.05,0.417,> 30,0.595,12.3,,,0.148 µM,0.00547 µM,< 0.005,< 0.005,0.00517,0.00538 µM,< 0.005,,< 0.005,< 0.005
COCCn1cc(-c2csc(-c3c[nH]c4ccccc34)n2)c2cccnc21,,9.56 µM,> 100 µM,24.7,> 100,> 100,> 100,> 100,64.3 µM,> 100 µM,,3.03 µM,1.43,5.05,2.53,4.45 µM,6.81,5.76 µM,3.02,4.08
N#CC(=S)Nc1cccc(Cl)c1,> 100 µM,> 100 µM,83.1 µM,75.9,> 100,29.4,> 100,> 100,> 100 µM,,,,,,,,,,,
Cc1ccc(C(CN(C)C)C(=O)c2ccccc2)cc1 (stereo unspecified),,28.6 µM,20.2 µM,14.8,7.07,11.5,3.75,4.36,7.52 µM,6.47 µM,,13.5 µM,2.58,2.64,3.62,1.7 µM,1.84,2.56 µM,1.03,6.62
Cc1c(C#N)cccc1-c1cc(-c2cn(Cc3cccc(C(C)(C)O)n3)nn2)nc(N)n1,> 100 µM,,> 100 µM,39,> 100,> 100,69.1,87.5,> 100 µM,> 100 µM,18.2 µM,,2.96,15.7,14.4,14.9 µM,17.7,22.9 µM,13.3,90.3
